From a melting point compilation (Tetko et al.; mined from patent text by program, amines drawn as free bases though some values may be those of a salt)

| SMILES | melting point [°C] |
| --- | --- |
| COc1ccc(C(=O)Nc2ccc(C(C)(C)CNC(=O)c3nc4ccc(F)cc4[nH]3)cc2)cc1OC | 222 to 224 |
| COc1cccc(OCCO)c1-c1ccc(C[C@H](NC(=O)c2c(Cl)cccc2Cl)C(=O)O)cc1 | 158 to 159 |
| CCOC(=O)c1nc2sc(C(C)C)cc2c(=O)o1 | 87.5 to 88.5 |
| CS(=O)c1nn(Cc2cccc(C(F)(F)F)c2)c(N)c1C#N (stereo not given) | 143 |
| COc1cc2c(Nc3ccc(Cl)cc3F)ncnc2cc1OCCSc1ccncc1 | 182 to 186 |
| CC(=O)c1cc(F)ccc1Oc1nc2ccc(-n3cc(-c4ccccc4)nn3)cc2cc1Cc1ccccc1 | 183 |
| Oc1nccc2ccncc12 | 260 to 262 |
| CCOC(=O)c1cn(NCC=O)c2cc(-n3cccc3)c(F)cc2c1=O | 194 to 198 |
| CON=C(C)C1=CCCN(O)C1 | 94 to 96 |
| CNc1nc(-c2cccc(NC(=O)c3ccc(OC)c(OC)c3)c2)c2cc(OC)c(OC)cc2n1 | 128 to 130 |
| COC(=O)[C@]1(F)[C@H]2[C@H](O)CC(=O)[C@H]21 | 61 to 62 |
| CCOc1c(C#N)oc2c3ccccc3n(-c3ccccc3)c12 | 121 to 122 |
| Cc1cccnc1NC(=O)C(C)(C)C | 90 to 92 |
| Cc1[nH]cc2c1-c1ccc(Cl)cc1C(c1ccccc1Cl)=NC2 | 219 to 222 |
| C=Cn1cc(C(=O)O)c(=O)c2cc(F)c(O)nc21 | 256 to 259 |
| COC(=O)c1sc2c(c1O)CCCC2 | 55 to 58 |
| CCOC(=O)CCCCC(c1ccc(C)s1)N(O)C(N)=O (stereo not given) | 106 to 107 |
| CC(=O)OC1CCC2(C)C(=CCC3C2CCC2(C)C(C(C)CC(F)(F)CC(C)(C)O)CCC32)C1 (stereo not given) | 168 to 170 |
| CC(C)(C)c1ccc(OC(CC(=O)O)C(=O)O)c(C(C)(C)C)c1 (stereo not given) | 177 to 181 |
| CCCCCCCCCCCCCCCC(=O)NC(CCCCCCCCCCCCCCC)CC(=O)NCCC(=O)NC(Cc1ccccc1)C(=O)O (stereo not given) | 169 to 174 |
| O=C([C@H]1CN(Cc2ccccc2)CCN1C(=O)NC1CCCCC1)N(CCCn1ccnc1)Cc1ccccc1 | 89.1 |
| Cc1ccc(C(=O)O)c(C2=NC(=O)C(C)(C(C)C)N2)n1 (stereo not given) | 139 to 142 |
| COC(=O)c1cc(C(C)OC)c(C(F)(F)F)cc1N (stereo not given) | 112 to 114 |
| CCN(CC)c1nc(C)nc2nc(-c3ccncc3)[nH]c12 | 228 to 230 |

| SMILES | melting point [°C] |
| --- | --- |
| CCOC(=O)c1cn(Cc2cnsn2)c2c(F)c(F)c(F)cc2c1=O | 200 to 203 |
| COc1cc(Nc2nccc(-c3ccc(OCc4ccccc4)cc3)n2)cc(OC)c1OC | 171 to 172 |
| Nc1cc2c(cc1[N+](=O)[O-])[nH]c(=O)c(=O)n2C1CCCCC1 | > 260 |
| C=CCn1c(NC=O)nc(N2CCc3ccccc3CC2)c(C#N)c1=O | > 200 |
| O=C1c2ccccc2-n2cnc(-c3nc(CN4Cc5ccccc5C4)no3)c2[C@@H]2CCN12 | 210 to 213 |
| N#Cc1cc(-c2ccoc2)c2ccc(COc3cc(F)cc(-c4cccs4)c3)cc2n1 | 181 to 183 |
| Cc1ccc(N(C=C(C#N)C#N)N=C(C#N)C#N)cc1C | 162 to 163 |
| NNC(=O)c1ccc2occ(-c3cccc(OC(F)(F)F)c3)c2c1 | 137 to 138 |
| COC(=O)c1coc2cc(O)ccc12 | 200 to 201 |
| Cc1cc(O)c(S(=O)(=O)CCC(C)C)c(=O)o1 | 101 to 102 |
| O=C1C=C(c2ccccc2C(F)(F)F)CO1 | 49 to 50 |
| C=CCOC1=NC(OCC)=NS(=O)(=O)N1C | 56 to 60 |
| O=C(NC(NC(=S)Nc1ccccc1F)C(F)(F)F)c1ccc(Cl)cc1 (stereo not given) | 197 to 200 |
| O=C(O)Cc1ccc(Cn2cc(C(=O)C(=O)NC3=CC(=O)OC3)c3ccccc32)cc1 | > 270 |
| Nc1ccc(CN2CCN(c3ccc(F)cc3)CC2)cc1 | 130 to 132 |
| OC1(c2ccccc2)c2ccccc2C2=NC3CCCCC3N21 (stereo not given) | 176 to 178 |
| O=c1c2cc(F)c(Cl)nc2n(-c2ccc(F)cc2)c(=O)n1OCc1ccccc1 | 208 to 209 |
| COc1cc(-n2c(=O)cc(C(F)(F)F)[nH]c2=O)ccc1C#N | > 230 |
| CC12CCC(=O)C=C1CCC1C2CCC2(C)C(=CCC(=O)O)CCC12 (stereo not given) | 266 to 270 |
| O=C1CCC2=C1C(c1ccc([N+](=O)[O-])s1)C1=C(CCS1)N2 (stereo not given) | 251 to 254 |
| N#Cc1nn(-c2c(Cl)cc(OC(F)(F)F)cc2Cl)c(N)c1I | 150 |
| O=[N+]([O-])c1c(Cl)nc2c(c1Cl)CCCC2 | 63 to 64 |
| Nc1cc2c(cc1F)OC(=O)CN2 | > 250 |
| O=C(Nc1nc(C2CC2)no1)C1c2ccccc2Oc2ccccc21 | 275 |

The next lines start with the values.

| melting point [°C] | SMILES |
| --- | --- |
| 113 to 116 | CCCNC(=S)NCCCCn1c(-c2ccccc2)nc2c(N)nc3ccccc3c21 |
| 92 to 93 | CN(C)Cc1cccc(OCCCNc2nc(N)n[nH]2)c1 |
| 225 to 226 | CCOc1ccc(-c2nnc(Nc3ccc(Br)c(Cl)c3)s2)cc1 |
| > 260 | O=C1c2ccccc2C(=O)c2sc(-c3cccc(F)c3)nc21 |
| 117 to 120 | CCOC(=O)C1=C(C)Nc2ccnc(OC(C)C)c2C1c1ccc(C(F)(F)F)cc1 (stereo not given) |
| 101 to 103 | N#Cc1cccc(NC(=O)CN2CCC(Cc3ccc(F)cc3)CC2)c1 |
| 173 to 175 | Cc1cc(C)cc(C(=O)c2c(C(C)C)c(=O)[nH]c(=O)n2Cc2ccc(N)cc2)c1 |
| 182 to 183 | O=C(Nc1cccc(C(=O)O)c1OCc1ccccc1Cl)c1ccccc1Cl |
| 162 to 164 | c1ccc(C2CC(n3cncn3)c3ccccc3N2)cc1 (stereo not given) |
| 175 to 177 | O=C(O)c1ccccc1COc1ccccc1Br |
| 156 to 157 | CCON=Cc1c(S(C)(=O)=O)ccc(C(=O)C2C(=O)CC(C)(C)CC2=O)c1Cl |
| 130 | Cc1nc2ccnn2c2c1CCN2Cc1ccccc1 |
| 258 to 259 | COc1ccc(C(=O)Nc2cc(NC(=O)c3ccc(OCCN4CCCC4)cc3)ccc2C)cc1OC |
| 189 to 190 | COC(=O)c1ccc(C(=O)Nc2ccccc2)cc1 |
| 48 to 51 | Cc1ccc(Cc2cnc(NCCCNc3ncc(Br)cc3C)[nH]c2=O)cn1 |
| 229 to 232 | O=c1cc(-c2ccoc2)c2ccc(O)cc2o1 |
| 174 to 175 | COc1ccc2c(c1)CCCC2(CO)NC(=O)c1c(F)cccc1F (stereo not given) |
| 172 | CCOC(=O)C(Cc1ccc(NC(C)=O)c([N+](=O)[O-])c1)(NC(C)=O)C(=O)OCC |
| 124 to 128 | Cc1cc(C(=O)O)cc(C)c1OCCNC(=O)C1Cc2ccccc2N1S(=O)(=O)c1ccc(-c2ccc(F)cc2)cc1 (stereo not given) |
| 44 to 45 | CCOC(=O)C(=O)OCc1ccc(OC)cc1 |
| 73 | CC(C)c1cc2cc([N+](=O)[O-])ccc2o1 |
| 225 to 226 | COC1(c2cc(F)cc(S(=O)(=O)c3ccc4c(c3)CC/C4=N\O)c2)CCOCC1 |
| 151 to 153 | CCCCc1ncc(/C=C(\Cc2ccc(C)s2)c2nnn[nH]2)n1Cc1ccccc1Cl |
| 187 to 189 | S=c1[nH]ccc2ccsc12 |
| 108 to 119 | CCOCCn1c(NC2CCN(CCC3(c4ccc(C)c(C)c4)CCN(C(=O)c4cc(OC)c(OC)c(OC)c4)C3)CC2)nc2ccccc21 (stereo not given) |
| 168 to 169 | CN(c1cc(OCCCS(C)(=O)=O)cc2cc(C3=NCC(CN4CCOCC4)S3)[nH]c12)S(=O)(=O)c1ccccn1 (stereo not given) |

| melting point [°C] | SMILES |
| --- | --- |
| 175 to 177 | CCC1c2cccn2-c2ccc(F)cc2N1S(=O)(=O)c1ccc(O)c(C)c1 (stereo not given) |
| 154 to 157 | Nc1nc2ccc(Oc3ccc4c(c3)OCO4)cc2s1 |
| 201 to 202 | CS(=O)(=O)c1ccc(-c2cc(C(F)F)nn2-c2ccc(F)cc2)cc1F |
| 85 to 87 | CCN1C=C(C(=O)OC)C(=O)CC1c1ccc(N(C)C)cc1 (stereo not given) |
| 160 to 164 | COc1ccc(C(CC(=O)O)N2C(=O)c3ccccc3C2=O)cc1 (stereo not given) |
| 276 to 277 | COc1ccccc1Cc1n[nH]c2c1c(=O)n(-c1ccccc1)c1ncccc21 |
| 58 to 66 | CNS(=O)(=O)Cc1ccc2[nH]cc(CCCN3C(=O)c4ccccc4C3=O)c2c1 |
| 112 to 117 | Nc1sc2c(c1C(=O)c1ccco1)CCN(Cc1ccccc1)C2 |
| 137 to 138 | CC1=CC(c2ccccc2[N+](=O)[O-])C=C(CN2C(=O)c3ccccc3C2=O)N1 (stereo not given) |
| 120 to 121 | O=C(NCCCl)Nc1ccc(CCCc2ccccc2OCc2ccccc2)cc1 |
| 134 to 138 | C[C@@H]1Cc2ccsc2[C@H](C)N1CCCNS(=O)(=O)c1ccc(N)cc1 (relative stereo) |
| 65 | CCCN(Cc1ccc(C(=O)NC2Cc3ccccc3C2)cc1)C1CCc2ncsc2C1 (stereo not given) |
| 201 to 204 | Cc1cc(-c2ccc(C#N)cc2)c(C)n1Cc1cnc(Cl)c(COC(=O)CCC(=O)O)c1 |
| 120 to 121 | CCN1C(=O)c2cnc(-c3ccccc3)nc2N(C(=O)CN(C(C)C)C(C)C)c2ccccc21 |
| 175 to 177 | CCOC(=O)c1c(C)nc2ccn(-c3ccc(Cl)cc3)n2c1=O |
| 59 to 60 | OCCCCc1ccc(OCc2ccccc2)cc1 |
| 159 to 162 | CN1CCC(c2c[nH]c3ccc(NC(=O)c4ccc(F)cc4Cl)cc23)CC1 |
| 60 to 63 | COC(=O)C1=C(C)NC(C)=C(C(=O)OCCN2CCCN(C(c3ccccc3)c3ccccc3)CC2)C1c1cccc([N+](=O)[O-])c1 (stereo not given) |
| > 300 | O=C1C2=C(Nc3ccccc3C2)c2ccccc21 |
| 177 to 178 | Cc1cc(Cn2c(-c3ccccc3)nc(Cl)c2CC(=O)O)ccc1OCc1ccccc1 |
| 148 to 149 | CCn1nc(-c2c(-c3ccccc3)nn3ccc(OC)cc23)ccc1=O |
| 133 | COc1ccc(C(=O)CCC(=O)c2ccc3ccccc3c2)cc1OC |
| 56 to 58 | CCCCc1ccc(CCCC(=O)O)cc1 |
| 94 to 96 | CC(C(=O)c1ccc(OC2CCCCO2)cc1)c1ccccc1 (stereo not given) |
| 138 to 140 | COc1ccccc1N1CCN(CCN(C(=O)C2CCCCC2)c2ccccc2N)CC1 |
| 118 to 120 | O=C(CCl)Nc1sccc1C(O)c1ccccc1Cl (stereo not given) |
